{"source": "paper PMC9021288", "about": "(Nature Communications, 2022)", "assay_in_all_cases": "CYP reaction phenotyping", "format_in_all_cases": "in vitro ADME", "key": {"[1]": {"biological_target": "T1, human recombinant CYP2D6 (Homo sapiens, UniProt P10635)", "T1 construct": "purchased Bactosomes (assay run at Cyprotex)", "T1 sequence (P10635 whole entry)": "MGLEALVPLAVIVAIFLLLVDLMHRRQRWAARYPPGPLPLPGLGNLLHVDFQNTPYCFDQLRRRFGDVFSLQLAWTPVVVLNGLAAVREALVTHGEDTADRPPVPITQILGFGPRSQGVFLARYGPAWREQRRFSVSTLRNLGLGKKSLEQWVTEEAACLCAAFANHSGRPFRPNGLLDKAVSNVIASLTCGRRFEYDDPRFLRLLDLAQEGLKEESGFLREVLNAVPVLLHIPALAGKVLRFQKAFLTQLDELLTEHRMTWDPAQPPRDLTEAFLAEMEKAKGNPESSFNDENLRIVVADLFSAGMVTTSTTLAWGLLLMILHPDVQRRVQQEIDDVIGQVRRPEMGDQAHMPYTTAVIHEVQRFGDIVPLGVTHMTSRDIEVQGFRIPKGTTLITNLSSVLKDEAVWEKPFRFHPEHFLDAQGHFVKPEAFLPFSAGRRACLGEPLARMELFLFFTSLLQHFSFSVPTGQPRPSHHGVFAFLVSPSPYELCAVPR", "method": "(§1) In vitro CYP reaction phenotyping was performed at Cyprotex (Alderly Park, United Kingdom). […] The remaining test compound at each time point was analyzed by LC-MS/MS."}, "[2]": {"biological_target": "T2, human recombinant CYP2C19 (Homo sapiens, UniProt P33261)", "T2 construct": "purchased Bactosomes (assay run at Cyprotex)", "T2 sequence (P33261 whole entry)": "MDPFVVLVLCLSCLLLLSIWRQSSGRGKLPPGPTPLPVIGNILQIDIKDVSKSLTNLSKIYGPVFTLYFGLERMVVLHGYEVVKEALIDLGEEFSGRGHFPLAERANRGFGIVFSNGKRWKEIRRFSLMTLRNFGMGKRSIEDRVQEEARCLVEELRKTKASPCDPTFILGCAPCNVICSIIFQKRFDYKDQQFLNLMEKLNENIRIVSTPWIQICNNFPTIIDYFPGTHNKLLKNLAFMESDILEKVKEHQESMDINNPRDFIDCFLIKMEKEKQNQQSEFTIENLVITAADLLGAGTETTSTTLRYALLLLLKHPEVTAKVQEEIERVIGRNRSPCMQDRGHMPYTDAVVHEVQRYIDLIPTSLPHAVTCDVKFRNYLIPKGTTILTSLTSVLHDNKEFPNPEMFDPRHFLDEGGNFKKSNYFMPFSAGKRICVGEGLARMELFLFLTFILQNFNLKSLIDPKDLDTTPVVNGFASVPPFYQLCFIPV", "details": "for Compound remaining (0 min = 100): CYP2C19", "method": "as §1"}, "[3]": {"biological_target": "T3, human recombinant CYP1A2 (Homo sapiens, UniProt P05177)", "T3 construct": "purchased Bactosomes (assay run at Cyprotex)", "T3 sequence (P05177 1-516)": "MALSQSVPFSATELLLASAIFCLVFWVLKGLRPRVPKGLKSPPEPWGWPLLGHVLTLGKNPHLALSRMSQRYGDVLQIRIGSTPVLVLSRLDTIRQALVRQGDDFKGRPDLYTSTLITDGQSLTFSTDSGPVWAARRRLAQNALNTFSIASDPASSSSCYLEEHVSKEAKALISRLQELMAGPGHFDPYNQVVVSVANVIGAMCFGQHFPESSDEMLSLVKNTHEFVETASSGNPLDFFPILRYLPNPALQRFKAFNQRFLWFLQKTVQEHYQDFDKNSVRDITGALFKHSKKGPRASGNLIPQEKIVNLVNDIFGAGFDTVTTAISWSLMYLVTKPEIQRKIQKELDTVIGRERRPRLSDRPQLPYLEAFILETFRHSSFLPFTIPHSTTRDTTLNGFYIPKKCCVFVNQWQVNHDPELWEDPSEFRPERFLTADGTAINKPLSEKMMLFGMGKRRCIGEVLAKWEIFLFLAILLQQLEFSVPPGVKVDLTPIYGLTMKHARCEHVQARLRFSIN", "method": "as §1"}, "[4]": {"biological_target": "T4, human recombinant CYP3A5 (Homo sapiens, UniProt P20815)", "T4 construct": "purchased Bactosomes (assay run at Cyprotex)", "T4 sequence (P20815 whole entry)": "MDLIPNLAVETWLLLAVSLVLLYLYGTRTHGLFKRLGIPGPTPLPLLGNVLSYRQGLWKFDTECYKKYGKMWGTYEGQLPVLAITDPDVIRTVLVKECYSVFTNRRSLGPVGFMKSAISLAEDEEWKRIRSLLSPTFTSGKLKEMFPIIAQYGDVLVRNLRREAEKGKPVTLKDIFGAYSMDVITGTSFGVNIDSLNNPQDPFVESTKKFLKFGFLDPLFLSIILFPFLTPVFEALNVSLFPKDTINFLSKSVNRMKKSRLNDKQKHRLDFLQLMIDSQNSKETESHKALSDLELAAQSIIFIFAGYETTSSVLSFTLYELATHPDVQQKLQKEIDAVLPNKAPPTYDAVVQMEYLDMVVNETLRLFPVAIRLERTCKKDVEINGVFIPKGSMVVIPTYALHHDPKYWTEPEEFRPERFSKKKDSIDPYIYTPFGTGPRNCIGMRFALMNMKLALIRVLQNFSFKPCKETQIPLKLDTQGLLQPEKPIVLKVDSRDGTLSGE", "details": "for Compound remaining (0 min = 100): CYP3A5", "method": "as §1"}, "[5]": {"biological_target": "T5, human recombinant CYP2B6 (Homo sapiens, UniProt P20813)", "T5 construct": "purchased Bactosomes (assay run at Cyprotex)", "T5 sequence (P20813 1-491)": "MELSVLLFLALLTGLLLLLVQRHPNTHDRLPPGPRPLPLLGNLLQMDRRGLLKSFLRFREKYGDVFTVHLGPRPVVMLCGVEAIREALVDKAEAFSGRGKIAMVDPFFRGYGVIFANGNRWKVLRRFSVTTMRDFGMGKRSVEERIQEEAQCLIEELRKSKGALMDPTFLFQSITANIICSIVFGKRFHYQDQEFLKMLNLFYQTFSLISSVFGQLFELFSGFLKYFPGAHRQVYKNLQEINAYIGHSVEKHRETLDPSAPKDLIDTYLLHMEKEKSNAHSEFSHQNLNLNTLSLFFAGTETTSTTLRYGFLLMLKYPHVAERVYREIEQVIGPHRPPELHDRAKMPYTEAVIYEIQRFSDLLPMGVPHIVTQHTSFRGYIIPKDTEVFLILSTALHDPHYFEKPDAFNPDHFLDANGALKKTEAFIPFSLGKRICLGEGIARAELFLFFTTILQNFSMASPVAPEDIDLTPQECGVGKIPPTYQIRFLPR", "method": "as §1"}, "[6]": {"biological_target": "T6, human recombinant CYP2C9 (Homo sapiens, UniProt P11712)", "T6 construct": "purchased Bactosomes (assay run at Cyprotex)", "T6 sequence (P11712 whole entry)": "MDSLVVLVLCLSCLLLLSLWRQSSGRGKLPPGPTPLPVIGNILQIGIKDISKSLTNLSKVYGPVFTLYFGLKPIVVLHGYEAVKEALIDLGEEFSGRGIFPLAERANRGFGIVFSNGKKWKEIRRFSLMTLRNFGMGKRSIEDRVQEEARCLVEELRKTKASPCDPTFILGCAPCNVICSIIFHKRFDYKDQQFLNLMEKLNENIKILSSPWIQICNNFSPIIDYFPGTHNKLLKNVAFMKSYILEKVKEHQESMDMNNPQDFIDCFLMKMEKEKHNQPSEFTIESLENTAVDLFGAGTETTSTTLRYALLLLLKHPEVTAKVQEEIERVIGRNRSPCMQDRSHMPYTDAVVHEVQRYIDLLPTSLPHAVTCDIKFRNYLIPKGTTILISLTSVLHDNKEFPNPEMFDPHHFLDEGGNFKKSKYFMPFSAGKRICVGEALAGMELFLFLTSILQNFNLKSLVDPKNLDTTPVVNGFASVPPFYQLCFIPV", "method": "as §1"}, "[7]": {"biological_target": "T7, human recombinant CYP2C8 (Homo sapiens, UniProt P10632)", "T7 construct": "purchased Bactosomes (assay run at Cyprotex)", "T7 sequence (P10632 1-490)": "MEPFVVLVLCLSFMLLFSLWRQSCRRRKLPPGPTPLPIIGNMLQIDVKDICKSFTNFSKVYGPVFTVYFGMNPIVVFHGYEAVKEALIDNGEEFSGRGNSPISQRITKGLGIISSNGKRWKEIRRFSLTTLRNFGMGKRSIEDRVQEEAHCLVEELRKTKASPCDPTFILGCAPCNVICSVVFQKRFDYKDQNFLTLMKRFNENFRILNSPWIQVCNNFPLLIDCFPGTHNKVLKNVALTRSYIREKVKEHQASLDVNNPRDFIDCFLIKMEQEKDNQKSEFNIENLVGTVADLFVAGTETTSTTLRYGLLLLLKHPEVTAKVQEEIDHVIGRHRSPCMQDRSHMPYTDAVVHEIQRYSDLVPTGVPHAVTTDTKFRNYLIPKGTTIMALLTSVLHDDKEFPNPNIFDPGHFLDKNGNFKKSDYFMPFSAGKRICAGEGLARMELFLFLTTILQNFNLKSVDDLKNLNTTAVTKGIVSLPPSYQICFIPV", "method": "as §1"}}}
{"smiles": "C[C@@H](CNC(=O)[C@H](O)C(C)(C)CO)NC(=O)c1cc(F)c(F)cc1F", "note": "[MMV693183]", "values": [{"measurement": "Compound remaining (0 min = 100)", "setting": "[1]; Incubation time (minutes) 0", "value": 100}, {"measurement": "Compound remaining (0 min = 100)", "setting": "[1]; Incubation time (minutes) 5", "value": 105}, {"measurement": "Compound remaining (0 min = 100)", "setting": "[1]; Incubation time (minutes) 15", "value": 101}, {"measurement": "Compound remaining (0 min = 100)", "setting": "[1]; Incubation time (minutes) 30", "value": 105}, {"measurement": "Compound remaining (0 min = 100)", "setting": "[1]; Incubation time (minutes) 45", "value": 106}, {"measurement": "role in oxidative metabolism", "setting": "[2]; 1 µM, 45 min, to a lower extent", "value": "responsible for the oxidative metabolism"}, {"measurement": "Compound remaining (0 min = 100)", "setting": "[2]; Incubation time (minutes) 0", "value": 100}, {"measurement": "Compound remaining (0 min = 100)", "setting": "[2]; Incubation time (minutes) 5", "value": 98.6}, {"measurement": "Compound remaining (0 min = 100)", "setting": "[2]; Incubation time (minutes) 15", "value": 92.4}, {"measurement": "Compound remaining (0 min = 100)", "setting": "[2]; Incubation time (minutes) 30", "value": 93.6}, {"measurement": "Compound remaining (0 min = 100)", "setting": "[2]; Incubation time (minutes) 45", "value": 95.9}, {"measurement": "Compound remaining (0 min = 100)", "setting": "[3]; Incubation time (minutes) 0", "value": 100}, {"measurement": "Compound remaining (0 min = 100)", "setting": "[3]; Incubation time (minutes) 5", "value": 98.3}, {"measurement": "Compound remaining (0 min = 100)", "setting": "[3]; Incubation time (minutes) 15", "value": 100}, {"measurement": "Compound remaining (0 min = 100)", "setting": "[3]; Incubation time (minutes) 30", "value": 98.6}, {"measurement": "Compound remaining (0 min = 100)", "setting": "[3]; Incubation time (minutes) 45", "value": 102}, {"measurement": "role in oxidative metabolism", "setting": "[4]; 1 µM, 45 min", "value": "responsible for the oxidative metabolism"}, {"measurement": "Compound remaining (0 min = 100)", "setting": "[4]; Incubation time (minutes) 0", "value": 100}, {"measurement": "Compound remaining (0 min = 100)", "setting": "[4]; Incubation time (minutes) 5", "value": 101}, {"measurement": "Compound remaining (0 min = 100)", "setting": "[4]; Incubation time (minutes) 15", "value": 92.7}, {"measurement": "Compound remaining (0 min = 100)", "setting": "[4]; Incubation time (minutes) 30", "value": 91.6}, {"measurement": "Compound remaining (0 min = 100)", "setting": "[4]; Incubation time (minutes) 45", "value": 93.9}, {"measurement": "Compound remaining (0 min = 100)", "setting": "[5]; Incubation time (minutes) 0", "value": 100}, {"measurement": "Compound remaining (0 min = 100)", "setting": "[5]; Incubation time (minutes) 5", "value": 101}, {"measurement": "Compound remaining (0 min = 100)", "setting": "[5]; Incubation time (minutes) 15", "value": 104}, {"measurement": "Compound remaining (0 min = 100)", "setting": "[5]; Incubation time (minutes) 30", "value": 97.8}, {"measurement": "Compound remaining (0 min = 100)", "setting": "[5]; Incubation time (minutes) 45", "value": 97.9}, {"measurement": "Compound remaining (0 min = 100)", "setting": "[6]; Incubation time (minutes) 0", "value": 100}, {"measurement": "Compound remaining (0 min = 100)", "setting": "[6]; Incubation time (minutes) 5", "value": 102}, {"measurement": "Compound remaining (0 min = 100)", "setting": "[6]; Incubation time (minutes) 15", "value": 100}, {"measurement": "Compound remaining (0 min = 100)", "setting": "[6]; Incubation time (minutes) 30", "value": 103}, {"measurement": "Compound remaining (0 min = 100)", "setting": "[6]; Incubation time (minutes) 45", "value": 111}, {"measurement": "Compound remaining (0 min = 100)", "setting": "[7]; Incubation time (minutes) 0", "value": 100}, {"measurement": "Compound remaining (0 min = 100)", "setting": "[7]; Incubation time (minutes) 5", "value": 99.9}, {"measurement": "Compound remaining (0 min = 100)", "setting": "[7]; Incubation time (minutes) 15", "value": 100}, {"measurement": "Compound remaining (0 min = 100)", "setting": "[7]; Incubation time (minutes) 30", "value": 101}, {"measurement": "Compound remaining (0 min = 100)", "setting": "[7]; Incubation time (minutes) 45", "value": 101}]}
